# Laboratory results reported in patent US20250144067A1, “PERSONALIZED STARVATION THERAPY FOR CANCER” (Faeth Therapeutics, Inc., priority 2021, published 2025).
# Structures can show the parent of a compound that is named as a salt.
# Columns and labels:
# [1] = tested on: NCI-H292 lung cancer cells; assay: FDA drug screening, complete media vs cholesterol-free media with simvastatin (TABLE 2); type: cell-based, human; details: for Cholesterol-free media + simvastatin (0.04 μM) / Complete Media: NCI-H292 cells
# [2] = tested on: NCI-H292 lung cancer cells; assay: FDA drug screening, complete media vs cholesterol-free media without statin (TABLE 1); type: cell-based, human
# [3] = cholesterol-free media with simvastatin 0.04 μM, FDA drug library screen (TABLE 2)
# [4] = complete media, FDA drug library screen (TABLE 2)
# [5] = complete media minus cholesterol-free media + simvastatin (0.04 μM), >0 enhanced anti-cancer activity, about 0 neutral, <0 antagonist
# [6] = Complete minus Cholesterol-free; >0 enhanced anti-cancer activity, about 0 neutral, <0 antagonist
# [7] = NCI-H292 cells, cholesterol-free media without statin, FDA drug library screen
# [8] = NCI-H292 cells, complete media, FDA drug library screen
# [9] = cholesterol-free media with simvastatin 0.04 μM, cell growth value in FDA drug screen
# [10] = complete media, cell growth value in FDA drug screen
# [11] = complete media minus cholesterol-free media + simvastatin, >0 enhanced anti-cancer activity, about 0 neutral, <0 antagonist
# [12] = NCI-H292 cells, cholesterol-free media without statin
# [13] = drug in cholesterol-free media with simvastatin 0.04 μM
# [14] = complete media vs cholesterol-free media + simvastatin (0.04 μM), >0 enhanced anti-cancer activity, about 0 neutral, <0 antagonist
# [15] = FDA library drug in cholesterol-free media with simvastatin 0.04 μM
# [16] = FDA library drug in complete media
# [17] = Complete minus Cholesterol-free; greater than 0 enhanced anti-cancer activity, about 0 neutral, below 0 antagonist
# [18] = NCI-H292 cells, FDA drug library screen, cholesterol-free media without statin
# [19] = NCI-H292 cells, FDA drug library screen, complete media
# [20] = Complete minus Cholesterol-free; […]
# [21] = complete vs cholesterol-free media; greater than 0 enhanced anti-cancer activity, about 0 neutral, below 0 antagonists
# [22] = FDA drug library screen, cholesterol-free media with simvastatin 0.04 μM
# [23] = FDA drug library screen, complete media
# [24] = complete media vs cholesterol-free media + simvastatin (0.04 μM), […]
structure (smiles),measurement,setting,value
CC(=O)O[C@H]1C(=O)[C@@]2(C)[C@H]([C@H](OC(=O)c3ccccc3)[C@]3(O)C[C@H](OC(=O)[C@H](O)[C@@H](NC(=O)c4ccccc4)c4ccccc4)C(C)=C1C3(C)C)[C@]1(OC(C)=O)CO[C@@H]1C[C@@H]2O [Paclitaxel],Cholesterol-free media + simvastatin (0.04 μM),[1]; [3],0.2107
same,Complete Media,[1]; [4],0.1648
same,Difference,[1]; [5],−0.05
same,Difference,[2]; [6],−0.01
same,Cholesterol-free,[2]; [7],0.0662
same,Complete,[2]; [8],0.05705
COc1ccc(C(C)=O)c(O)c1 [Paeonol],Cholesterol-free media + simvastatin (0.04 μM),[1]; [9],1.081
same,Complete Media,[1]; [10],1.107
same,Difference,[1]; [11],0.03
same,Difference,[2]; [6],−0.29
same,Cholesterol-free,[2]; [12],1.074
same,Complete,"[2]; NCI-H292 cells, complete media",0.7804
CC(=O)c1c(C)c2cnc(Nc3ccc(N4CCNCC4)cn3)nc2n(C2CCCC2)c1=O [Palbociclib (hydrochloride)],Cholesterol-free media + simvastatin (0.04 μM),[1]; [13],1.037
same,Complete Media,[1]; drug in complete media,0.8185
same,Difference,[1]; [14],−0.22
same,Difference,[2]; [6],−0.26
same,Cholesterol-free,[2]; [12],1.289
same,Complete,"[2]; NCI-H292 cells, complete media",1.028
CC(=O)c1c(C)c2cnc(Nc3ccc(N4CCNCC4)cn3)nc2n(C2CCCC2)c1=O.O=S(=O)(O)CCO [Palbociclib (isethionate)],Cholesterol-free media + simvastatin (0.04 μM),[1]; [3],0.7514
same,Complete Media,[1]; [4],0.6914
same,Difference,[1]; [5],−0.06
same,Difference,[2]; [6],−0.25
same,Cholesterol-free,[2]; [12],0.905
same,Complete,"[2]; NCI-H292 cells, complete media",0.6502
CCCCCCCCCCCCCCCC(=O)OC1CCCn2c1nc(C)c(CCN1CCC(c3noc4cc(F)ccc34)CC1)c2=O (centres unmarked) [Paliperidone palmitate],Cholesterol-free media + simvastatin (0.04 μM),[1]; [15],1.193
same,Complete Media,[1]; [16],0.8268
same,Difference,[1]; [14],−0.37
same,Difference,[2]; [17],−0.16
same,Cholesterol-free,[2]; [18],1.234
same,Complete,[2]; [19],1.075
Cc1nc2n(c(=O)c1CCN1CCC(c3noc4cc(F)ccc34)CC1)CCCC2O (centres unmarked) [Paliperidone],Cholesterol-free media + simvastatin (0.04 μM),[1]; [15],1.086
same,Complete Media,[1]; [16],0.8023
same,Difference,[1]; [14],−0.28
same,Difference,[2]; [17],−0.18
same,Cholesterol-free,[2]; [18],0.8391
same,Complete,[2]; [19],0.6569
COc1cc2c(cc1OC)-c1cc3ccc(OC)c(OC)c3c[n+]1CC2.[Cl-] [Palmatine (chloride)],Cholesterol-free media + simvastatin (0.04 μM),[1]; [3],0.706
same,Complete Media,[1]; [4],0.6459
same,Difference,"[1]; complete media minus cholesterol-free media + simvastatin (0.04 μM), […]",−0.06
same,Difference,[2]; [20],−0.14
same,Cholesterol-free,[2]; [18],0.7642
same,Complete,[2]; [19],0.6255
O=C1c2cccc3c2[C@H](CCC3)CN1[C@@H]1CN2CCC1CC2 [Palonosetron (Hydrochloride)],Cholesterol-free media + simvastatin (0.04 μM),[1]; [13],1.184
same,Complete Media,[1]; drug in complete media,0.927
same,Difference,[1]; [14],−0.26
same,Cholesterol-free,[2]; [12],1.075
same,Complete,"[2]; NCI-H292 cells, complete media",0.7009
same,Difference,[2]; [21],−0.37
Cn1c(=O)c2[nH]c(Br)nc2n(C)c1=O [Pamabrom],Cholesterol-free media + simvastatin (0.04 μM),[1]; [9],0.9207
same,Complete Media,[1]; [10],0.9433
same,Difference,[1]; [11],0.02
same,Difference,[2]; [17],−0.16
same,Cholesterol-free,[2]; [18],0.9285
same,Complete,[2]; [19],0.7717
NCCC(O)(P(=O)([O-])O)P(=O)([O-])O.O.O.O.O.O.[Na+].[Na+] [Pamidronate (disodium pentahydrate)],Cholesterol-free media + simvastatin (0.04 μM),[1]; [22],1.169
same,Complete Media,[1]; [23],1.009
same,Difference,[1]; [14],−0.16
same,Difference,[2]; [17],−0.12
same,Cholesterol-free,[2]; [18],1.305
same,Complete,[2]; [19],1.183
NCCC(O)(P(=O)(O)O)P(=O)(O)O [Pamidronic acid],Cholesterol-free media + simvastatin (0.04 μM),[1]; [3],1.09
same,Complete Media,[1]; [4],1.049
same,Difference,[1]; [5],−0.04
same,Difference,[2]; [17],−0.18
same,Cholesterol-free,[2]; [18],0.8132
same,Complete,[2]; [19],0.6309
CC1(C)CCC[C@](C)([C@H]2CC[C@]3(C)[C@@H]2[C@H](O)C[C@@H]2[C@@]4(C)CC[C@H](O)C(C)(C)[C@@H]4[C@@H](O)C[C@]23C)O1 [Panaxatriol],Cholesterol-free media + simvastatin (0.04 μM),[1]; [22],1.085
same,Complete Media,[1]; [23],0.956
same,Difference,[1]; [24],−0.13
same,Difference,[2]; [20],−0.09
same,Cholesterol-free,[2]; [18],1.136
same,Complete,[2]; [19],1.044
CC(=O)O[C@H]1C[C@@H]2CC[C@@H]3[C@H](CC[C@@]4(C)[C@H]3C[C@H]([N+]3(C)CCCCC3)[C@@H]4OC(C)=O)[C@@]2(C)C[C@@H]1[N+]1(C)CCCCC1.[Br-].[Br-] [Pancuronium (dibromide)],Cholesterol-free media + simvastatin (0.04 μM),[1]; [13],1.121
same,Complete Media,[1]; drug in complete media,0.885
same,Difference,[1]; [24],−0.24
same,Cholesterol-free,[2]; [12],1.193
same,Complete,"[2]; NCI-H292 cells, complete media",0.8678
same,Difference,[2]; complete vs cholesterol-free media; […],−0.33
Cc1[nH]c2ccccc2c1CCNCc1ccc(/C=C/C(=O)NO)cc1 [Panobinostat],Cholesterol-free media + simvastatin (0.04 μM),[1]; [3],0.008426
same,Complete Media,[1]; [4],−0.004725
same,Difference,[1]; [5],−0.01
same,Difference,[2]; [6],−0.03
same,Cholesterol-free,[2]; [7],−0.004474
same,Complete,[2]; [8],−0.02997
COc1ccnc(C[S+]([O-])c2nc3ccc(OC(F)F)cc3[nH]2)c1OC (centres unmarked) [Pantoprazole (sodium hydrate)],Cholesterol-free media + simvastatin (0.04 μM),[1]; [22],1.494
same,Complete Media,[1]; [23],1.718
same,Difference,[1]; [11],0.22
same,Cholesterol-free,[2]; [12],1.314
same,Complete,"[2]; NCI-H292 cells, complete media",0.9437
same,Difference,[2]; [21],−0.37
COc1ccnc(C[S+]([O-])c2nc3cc(OC(F)F)ccc3[n-]2)c1OC.[Na+] (centres unmarked) [Pantoprazole (sodium)],Cholesterol-free media + simvastatin (0.04 μM),"[1]; cholesterol-free media with simvastatin 0.04 μM, […]",1.655
same,Complete Media,"[1]; complete media, […]",1.781
same,Difference,"[1]; complete media minus cholesterol-free media + simvastatin, […]",0.13
same,Difference,[2]; [20],−0.01
same,Cholesterol-free,[2]; [7],0.8197
same,Complete,[2]; [8],0.8107
CCC(=O)NS(=O)(=O)c1ccc(-c2c(-c3ccccc3)noc2C)cc1 [Parecoxib (Sodium)],Cholesterol-free media + simvastatin (0.04 μM),[1]; [22],2.419
same,Difference,[1]; [5],−1.17
same,Difference,[2]; [17],−0.08
same,Cholesterol-free,[2]; [18],0.9327
same,Complete,[2]; [19],0.8551
CCC(=O)NS(=O)(=O)c1ccc(-c2c(-c3ccccc3)noc2C)cc1 [Parecoxib],Cholesterol-free media + simvastatin (0.04 μM),[1]; [13],0.9747
same,Complete Media,[1]; drug in complete media,0.7244
same,Difference,[1]; [14],−0.25
same,Difference,[2]; [6],−0.20
same,Cholesterol-free,[2]; [12],0.9171
same,Complete,"[2]; NCI-H292 cells, complete media",0.7131
C#CCN(C)Cc1ccccc1 [Pargyline (hydrochloride)],Cholesterol-free media + simvastatin (0.04 μM),[1]; [3],0.8767
same,Complete Media,[1]; [4],0.8243
same,Difference,[1]; [5],−0.05
same,Cholesterol-free,[2]; [12],1.204
same,Complete,"[2]; NCI-H292 cells, complete media",0.7875
same,Difference,[2]; [21],−0.42
Cc1cnc(C(=O)N[C@H]2CCCCC/C=C\[C@@H]3C[C@@]3(C(=O)NS(=O)(=O)C3CC3)NC(=O)[C@@H]3C[C@@H](Oc4nc5ccccc5c5ccccc45)CN3C2=O)cn1 [Paritaprevir],Cholesterol-free media + simvastatin (0.04 μM),[1]; [3],1.147
same,Complete Media,[1]; [4],1.102
same,Difference,[1]; [5],−0.05
same,Difference,[2]; [6],−0.03
same,Cholesterol-free,[2]; [7],0.9471
same,Complete,[2]; [8],0.9198
Fc1ccc([C@@H]2CCNC[C@H]2COc2ccc3c(c2)OCO3)cc1 [Paroxetine (hydrochloride)],Cholesterol-free media + simvastatin (0.04 μM),[1]; [3],0.916
same,Complete Media,[1]; [4],0.9086
same,Difference,[1]; [5],−0.01
same,Difference,[2]; [6],−0.22
same,Cholesterol-free,[2]; [12],1.09
same,Complete,"[2]; NCI-H292 cells, complete media",0.8739
Cc1ccc(Nc2nccc(N(C)c3ccc4c(C)n(C)nc4c3)n2)cc1S(N)(=O)=O [Pazopanib (Hydrochloride)],Cholesterol-free media + simvastatin (0.04 μM),[1]; [22],0.5325
same,Complete Media,[1]; [23],1.206
same,Difference,[1]; [11],0.67
same,Difference,[2]; [17],−0.12
same,Cholesterol-free,[2]; [18],1.089
same,Complete,[2]; [19],0.9723
Cc1ccc(Nc2nccc(N(C)c3ccc4c(C)n(C)nc4c3)n2)cc1S(N)(=O)=O [Pazopanib],Cholesterol-free media + simvastatin (0.04 μM),[1]; [22],1.156
same,Complete Media,[1]; [23],1.457
same,Difference,[1]; [11],0.30
same,Difference,[2]; [6],0.02
same,Cholesterol-free,[2]; [7],1.084
same,Complete,[2]; [8],1.105
NC(=O)c1cnc2[nH]ccc2c1N[C@@H]1[C@@H]2CC3C[C@H]1C[C@@](O)(C3)C2 [Peficitinib],Cholesterol-free media + simvastatin (0.04 μM),[1]; [9],0.6674
same,Complete Media,[1]; [10],0.776
same,Difference,[1]; [11],0.11
same,Difference,[2]; [6],−0.03
same,Cholesterol-free,[2]; [7],1.336
same,Complete,[2]; [8],1.303
Nc1nc2[nH]cc(CCc3ccc(C(=O)N[C@@H](CCC(=O)O)C(=O)O)cc3)c2c(=O)[nH]1 [Pemetrexed (disodium hemipenta hydrate)],Cholesterol-free media + simvastatin (0.04 μM),[1]; [3],0.2685
same,Complete Media,[1]; [4],0.2746
same,Difference,[1]; [5],0.01
same,Cholesterol-free,[2]; [7],0.09445
same,Complete,[2]; [8],0.1693
same,Difference,"[2]; complete vs cholesterol-free media; >0 enhanced anti-cancer activity, about 0 neutral, <0 antagonist",0.07
Nc1nc2[nH]cc(CCc3ccc(C(=O)N[C@@H](CCC(=O)O)C(=O)O)cc3)c2c(=O)[nH]1 [Pemetrexed (disodium)],Cholesterol-free media + simvastatin (0.04 μM),[1]; [9],0.1199
same,Complete Media,[1]; [10],0.1499
same,Difference,[1]; [11],0.03
same,Difference,[2]; [6],−0.19
same,Cholesterol-free,[2]; [12],0.3169
same,Complete,"[2]; NCI-H292 cells, complete media",0.1251
